24 compounds from patent US20090221559A1 (priority 2005, published 2009) can be followed below.

Like-named read-outs stand apart in the source and are kept apart here. A value given as a limit tells only on which side of the number the result lay.

Test [1] addresses T1, HCV NS5B polymerase (His-tagged, C-terminal 21 amino acid deleted NS5B, HC-J4) (Hepatitis C virus genotype 1b, UniProt O92972).
T1 construct: The cDNA encoding NS5B amino acid 1-570 (HC-J4, genotype 1b); His tag (His6, from pET-21b) (C); made in house; host or cells: E. coli BL21 (DE3)
The test is described as follows: NS5b polymerase assay (biochemical RdRp assay, 3H-GTP incorporation, SPA beads). Set-up: species or system HCV genotype 1b. The protocol: (§1) The compounds of formula (I) were tested for anti-HCV activity in an assay determining their activity against NS5b polymerase and in an HCV replicon assay
The cDNA encoding NS5B amino acid 1-570 (HC-J4, genotype 1b, pCV-J4L6S, genebank accession number AF054247) was subcloned into the Nhe I and Xho I restriction sites of pET-21b. Expression of the subsequent His-tagged C-terminal 21 amino acid deleted NS5B was performed as follows:
Following transformation in BL21 (DE3) competent cells, bacterial cells were grown in 22 liter LB/Amp media until to reach OD600=0.4-0.6. Protein expression was induced by addition of IPTG 0.4 mM, supplemented with 10 μM MgCl2, and incubated for 14-16 hrs at 20° C. Cells were harvested, resuspended in lysis buffer (20 mM Tris-HCl pH=7.5, 0.3 M NaCl, 10% glycerol, 0.1% NP40, 4 mM MgCl2, 14 mM beta-mercaptoethanol, with tablet of EDTA-free protease cocktail inhibitors) and lysed by sonification. The cell lysate was cleared by high-speed centrifugation (20K×g for 30 min), captured on Ni-NTA beads for 70 min at 4° C., and eluted with 25 mM Hepes pH 7.5, 0.5 M NaCl, 10% glycerol, 14 mM BME, 500 mM imidazole. The eluent was dialysed against 25 mM Hepes pH 7.5, 10% glycerol, 50 mM NaCl, 14 mM BME, after which the protein was further purified by heparin chromatography using the same buffer with 1 M NaCl for elution. Fractions containing pure protein were collected, dialyzed against storage buffer 25 mM Hepes pH=7.5, 300 mM NaCl, 10% glycerol, 14 mM BME), and flash-freezed in liquid nitrogen.
Measurement of HCV NS5B polymerization activity was performed by evaluating the amount of radiolabeled GTP incorporated by the enzyme in a newly synthesized RNA using heteropolymeric RNA template/primer. The highthroughput RdRp assay was carried out in 384-well plates using 200 nM enzyme, 0.1 μCi of ^3H GTP, 5 mM MgCl2, 600 nM GTP, 30 nM PolyC, 300 nM 5′-biotinylated oligo(rG13)/poly(rC) in 20 mM Tris pH 7.5, 21 mM KCl, 2.5 mM DTT, 16.7 mM NaCl and 0.17 mM EDTA. Test compounds were dissolved in dimethylsulfoxide. The test compounds were added to the preformed polymerase-template complex, and incubated at room temperature (RT) for 15 min before the addition of NTPs. The 30-μl reaction was terminated after 2 h at 25° C. upon addition of 30-μl PVT-SPA beads (Amersham Biosciences RPNQ0009, 5 mg/ml in 0.5 M EDTA).

The subject of test [2] is HCV replicon RNA replication in Huh-7 luc/neo (Huh-Luc) cells. Nature of the test: HCV replicon assay (stable replicon cell reporter assay, luciferase read-out). Format: cell-based, HCV type 1b. The procedure: as §1
The compounds of the present invention were examined for activity in the inhibition of HCV RNA replication in a cellular assay. […] The cellular assay was based on a bicistronic expression construct, as described by Lohmann et al. (1999) Science vol. 285 pp. 110-113 with modifications described by Krieger et al. (2001) Journal of Virology 75: 4614-4624, in a multi-target screening strategy. In essence, the method was as follows.
The assay utilized the stably transfected cell line Huh-7 luc/neo (hereafter referred to as Huh-Luc). This cell line harbored an RNA encoding a bicistronic expression construct comprising the wild type NS3-NS5B regions of HCV type 1b translated from an Internal Ribosome Entry Site (IRES) from encephalomyocarditis virus (EMCV), preceded by a reporter portion (FfL-luciferase), and a selectable marker portion (neo^R, neomycine phosphotransferase). The construct was bordered by 5′ and 3′ NTRs (non-translated regions) from HCV type 1b. Continued culture of the replicon cells in the presence of G418 (neo^R) was dependent on the replication of the HCV RNA. The stably transfected replicon cells that expressed HCV RNA, which replicated autonomously and to high levels, encoding inter alia luciferase, were used for screening the antiviral compounds.
The replicon cells were plated in 384 well plates in the presence of the test and control compounds which were added in various concentrations. Following an incubation of three days, HCV replication was measured by assaying luciferase activity (using standard luciferase assay substrates and reagents and a Perkin Elmer ViewLux™ ultraHTS microplate imager). […] The inhibitory activity of the compound on luciferase activity was monitored on the Huh-Luc cells, enabling a dose-response curve for each test compound.
In general terms: In antiviral work, replicon cells carry a viral genome segment that copies itself.

Where [3] appears, read: 200 nM enzyme, 3H-GTP incorporation, 2 h at 25° C., read-out: NS5B Polymerase Assay IC50.
The mark [4] stands for this setting: Huh-Luc cells, three days incubation, luciferase activity, read-out: Replicon Assay EC50.
The mark [5] stands for this setting: NS5B Polymerase Assay IC50, 200 nM enzyme, 3H-GTP incorporation, 2 h at 25° C.
[6] abbreviates: Hepatitis C virus, Huh-7, 72 h, read-out: Replicon Assay EC50, Huh-Luc cells, three days incubation, luciferase activity.
Setting [7] is: NS5B Polymerase Assay IC50 (μM).
The mark [8] stands for this setting: Hepatitis C virus, Huh-7, 72 h, read-out: Replicon Assay EC50 (μM), Huh-Luc cells, incubation of three days, luciferase activity.
Where [9] appears, read: read-out: Replicon Assay EC50, Huh-Luc cells, three days incubation, luciferase activity.

T1 sequence (O92972 2417-3000, looked up, stated change not applied): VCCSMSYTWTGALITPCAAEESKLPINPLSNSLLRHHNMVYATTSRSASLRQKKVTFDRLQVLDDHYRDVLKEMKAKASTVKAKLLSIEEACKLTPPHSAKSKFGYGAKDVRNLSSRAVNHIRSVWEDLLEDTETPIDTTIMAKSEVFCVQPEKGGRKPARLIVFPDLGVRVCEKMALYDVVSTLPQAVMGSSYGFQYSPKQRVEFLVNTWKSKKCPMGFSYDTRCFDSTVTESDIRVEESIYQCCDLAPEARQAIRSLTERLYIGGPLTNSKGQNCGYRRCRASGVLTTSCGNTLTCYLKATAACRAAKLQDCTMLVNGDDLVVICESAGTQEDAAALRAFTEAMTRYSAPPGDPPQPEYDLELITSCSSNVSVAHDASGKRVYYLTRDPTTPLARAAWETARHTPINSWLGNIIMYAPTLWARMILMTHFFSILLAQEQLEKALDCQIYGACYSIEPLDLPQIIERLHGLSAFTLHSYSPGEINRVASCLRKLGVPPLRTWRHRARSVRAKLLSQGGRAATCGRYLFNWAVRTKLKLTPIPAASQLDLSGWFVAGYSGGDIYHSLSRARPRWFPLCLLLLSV

As a reminder, the IC50 is the concentration at which inhibition is half-maximal. One may read the EC50 as the concentration that produces a half-maximal response. For the compound `O=C1CC(c2ccc(Cl)cc2)CC2=C1C(c1cccc([N+](=O)[O-])c1)N(C(=O)C(F)(F)F)c1ccccc1N2` (mixture of isomers) [compound 202], the IC50 in test [1] (setting [3]) is more than 33.3 µM. In test [2] (setting [4]), the EC50 came to 9.68 µM.
`O=C1CC(c2ccc(Cl)cc2)CC2=C1C(c1cccc(Cl)c1)N(C(=O)c1ccccc1)c1ccccc1N2` (mixture of isomers) [compound 203]: in test [1] (setting [3]), the IC50 is more than 33.3 µM. Besides, in test [2] (setting [4]), the EC50 came to 9.94 µM.
On to `Cc1ccc(C2CC(=O)C3=C(C2)Nc2ccccc2N(C(=O)c2ccccc2)C3c2cccc(Cl)c2)cc1` (mixture of isomers) [compound 204], for which the IC50 in test [1] (setting [3]) is more than 33.3 µM. For the same compound, the EC50 in test [2] (setting [4]) came to 9.96 µM.
Regarding `CCCCCC(=O)N1c2ccccc2NC2=C(C(=O)CC(c3ccc(OC)c(OC)c3)C2)C1c1cccc(Cl)c1` (mixture of isomers) [compound 205], the IC50 in test [1] (setting [3]) is more than 33.3 µM. Also, the EC50 in test [2] (setting [4]) worked out at 9.96 µM.
The corresponding values for `COc1ccc(C2CC(=O)C3=C(C2)Nc2ccccc2N(C(=O)c2ccccc2)C3c2ccc(C)cc2)cc1` (mixture of isomers) [compound 206] are more than 33.3 µM and 10.9 µM.
The like results for `O=C1CC(c2ccc(Cl)cc2)CC2=C1C(c1cccc(Cl)c1)N(C(=O)C(F)(F)F)c1ccccc1N2` (mixture of isomers) [compound 208] were, in that order, more than 33.3 µM and 11.1 µM.
With `Cc1ccc(C2CC(=O)C3=C(C2)Nc2ccccc2N(C(=O)c2ccccc2)C3c2ccccc2)cc1` (mixture of isomers) [compound 209], the IC50 in test [1] (setting [3]) was more than 33.3 µM. In addition, the EC50 in test [2] (setting [4]) was found to be 11.8 µM.
As for `COc1ccc(C2CC(=O)C3=C(C2)Nc2ccccc2N(C(=O)C(F)(F)F)C3c2ccc(Cl)cc2)cc1` (mixture of isomers) [compound 210], in test [1] (setting [3]), the IC50 is more than 33.3 µM. The EC50 in test [2] (setting [4]) was 12.1 µM.
The corresponding values for `Cc1ccc(C2C3=C(CC(c4cccc([N+](=O)[O-])c4)CC3=O)Nc3ccccc3N2C(=O)c2ccccc2)cc1` (mixture of isomers) [compound 212] are more than 42.7 µM and 23.9 µM.
Consider `CCCCCC(=O)N1c2ccccc2NC2=C(C(=O)CC(c3ccc(Cl)cc3)C2)C1c1ccc(OC)cc1` (mixture of isomers) [compound 215], for which, in test [1] (setting [3]), the IC50 is more than 33.3 µM. Besides, in test [2] (setting [4]), the EC50 stood at 14.1 µM.
As for `CCOc1ccccc1C1C2=C(CC(c3ccc(OC)cc3)CC2=O)Nc2ccccc2N1C(=O)C(F)(F)F` (mixture of isomers) [compound 216], in test [1] (setting [3]), the IC50 was more than 42.7 µM. In addition, the EC50 in test [2] (setting [4]) amounted to 25.3 µM.
Take `CCCCOc1ccc(C2CC(=O)C3=C(C2)Nc2ccccc2N(C(=O)CC)C3c2ccccc2)cc1` (mixture of isomers) [compound 217]: in test [1] (setting [3]), the IC50 was more than 42.7 µM. The EC50 in test [2] (setting [4]) was determined as 20.3 µM.
The like results for `COc1ccc(C2CC(=O)C3=C(C2)Nc2ccccc2N(C(=O)c2ccccc2)C3c2ccc(Cl)cc2)cc1OC` (mixture of isomers) [compound 218] were, in that order, more than 33.3 µM and 14.8 µM.
Compound `CC(=O)N1c2ccccc2NC2=C(C(=O)CC(c3ccccc3OCc3ccccc3)C2)C1C(Br)=Cc1ccccc1` (mixture of isomers) [compound 299] had a half-inhibitory concentration (IC50) in test [1] (setting [5]) of more than 133 µM. Besides, the EC50 in test [2] (setting [6]) came to 2.36 µM.
In the case of `O=C1CC(c2ccccc2OCc2ccccc2)CC2=C1C(C(Br)=Cc1ccccc1)Nc1ccccc1N2` (mixture of isomers) [compound 497], the IC50 in test [1] (setting [7]) is more than 133 µM. In addition, in test [2] (setting [8]), the EC50 turned out to be 3.79 µM.
Turning to `O=C1CC(c2ccccc2OCc2ccccc2)CC2=C1C(C(Br)=Cc1ccccc1)Nc1ccccc1N2` (mixture of isomers) [compound 498], in test [1] (read-out: NS5B Polymerase Assay IC50), the IC50 is more than 133 µM. Besides, the EC50 in test [2] (Huh-Luc cells, incubation of three days, luciferase activity, read-out: Replicon Assay EC50) is 2.92 µM.
As for `CC1(C)CC(=O)C2=C(C1)Nc1ccccc1N(C(=O)C(F)(F)F)C2/C=C/c1ccccc1` (racemic) [compound 244], the IC50 in test [1] (setting [5]) is more than 33.3 µM. For the same compound, the EC50 in test [2] (setting [6]) was 15.9 µM.
In test [1] (setting [7]), `CC1(C)CC(=O)C2=C(C1)Nc1ccccc1NC2/C(Br)=C/c1ccccc1` (racemic) [compound 500, 11-(1-Bromo-2-phenylvinyl)-3,3-dimethyl-2,3,4,5,10,11-hexahydro-dibenzo[b,e][1,4]diazepin-1-one] returned an IC50 of more than 133 µM. In test [2] (setting [8]), the EC50 is 26.5 µM.
The corresponding values for `CC1(C)CC(=O)C2=C(C1)Nc1ccccc1NC2/C(Cl)=C/c1ccccc1` (racemic) [compound 506, 11-(1-Chloro-2-phenylvinyl)-3,3-dimethyl-2,3,4,5,10,11-hexahydro-dibenzo[b,e][1,4]diazepin-1-one] are more than 42.7 µM and 56.7 µM.
In the case of `CC(=O)N1c2ccccc2NC2=C(C(=O)CC(C)(C)C2)C1c1ccc(Cl)cc1Cl` (single isomer, unassigned) [compound 35, 10-Acetyl-11-(2,4-dichlorophenyl)-2,3,4,5,10,11-hexahydro-3,3-dimethyl-1H-dibenzo[b,e][1,4]diazepin-1-one], in test [1] (setting [5]), the IC50 came to 1.28 µM. In addition, in test [2] (setting [9]), the EC50 stood at 20.5 µM.
As to `CC(=O)N1c2ccccc2NC2=C(C(=O)CC(C)(C)C2)C1c1ccc(Cl)cc1Cl` (single isomer, unassigned) [compound 36, 10-Acetyl-11-(2,4-dichlorophenyl)-2,3,4,5,10,11-hexahydro-3,3-dimethyl-1H-dibenzo[b,e][1,4]diazepin-1-one], the IC50 in test [1] (setting [5]) was more than 41.3 µM. In addition, the EC50 in test [2] (setting [6]) was determined as 17 µM.
The like results for `CC(=O)N1c2ccccc2NC2=C(C(=O)CC(c3ccccc3OCc3ccccc3)C2)C1c1ccc(Cl)cc1Cl` (single isomer, unassigned) [compound 186, 10-Acetyl-3-(2-benzyloxyphenyl)-11-(2,4-dichlorophenyl)-2,3,4,5,10,11-hexahydro-dibenzo[b,e][1,4]diazepin-1-one] were, in that order, 40.9 µM and 2.03 µM.
`CC(=O)N1c2ccccc2NC2=C(C(=O)CC(c3ccccc3OCc3ccccc3)C2)C1c1cccc(OCc2ccccc2)c1` (single isomer, unassigned) [compound 189]: the IC50 in test [1] (setting [5]) is more than 42.7 µM. The EC50 in test [2] (setting [9]) came to 3.99 µM.
Take `CC(=O)N1c2ccccc2NC2=C(C(=O)CC(c3ccccc3OCc3ccccc3)C2)C1c1cccc(OCc2ccccc2)c1` (single isomer, unassigned) [compound 190]: in test [1] (read-out: NS5B Polymerase Assay IC50, 200 nM enzyme, 3H-GTP incorporation, 2 h at 25° C.), the IC50 is more than 42.7 µM. The EC50 in test [2] (setting [9]) stood at 1.09 µM.
